Measured values reported in ChEMBL document CHEMBL1150603, “Ecteinascidins 770 and 786 from the Thai tunicate Ecteinascidia thurstoni” (J Nat Prod, 2002).
In brackets after ≈: the same amount, converted by molar mass.

Experiments:
[1] = Cytotoxicity against breast cancer cells; assay type: functional, cell-based; conditions: Cancer cell lines
[2] = test system: KB; assay: Cytotoxicity against human KB cells; assay type: functional, cell-based
[3] = test system: Mycobacterium tuberculosis; assay: Antitubercular activity against Mycobacterium tuberculosis H37Ra; assay type: functional

Structure (SMILES): COc1cc2c(cc1O)CCN[C@]21CS[C@@H]2c3c(OC(C)=O)c(C)c4c(c3[C@H](COC1=O)N1[C@@H]2[C@H]2c3c(cc(C)c(OC)c3O)C[C@@H]([C@@H]1C#N)N2C)OCO4 [ECTEINASCIDIN 770]
- IC50 [1]: 2.5 nM
- IC50 [2]: 0.034 nM
- MIC [3]: 0.13 µM (≈ 0.1 µg/mL)

Structure (SMILES): COc1cc2c(cc1O)CCN[C@]21C[S+]([O-])[C@@H]2c3c(OC(C)=O)c(C)c4c(c3[C@H](COC1=O)N1[C@@H]2[C@@H]2c3c(cc(C)c(OC)c3O)C[C@@H]([C@@H]1C#N)N2C)OCO4 (stereo partly specified) [ECTEINASCIDIN 786]
- IC50 [1]: 7.6 nM
- IC50 [2]: 0.15 nM
- MIC [3]: 2 µM (≈ 1.57 µg/mL)
